Bridge positions count the residues as written; N and C are the ends. Square brackets hold non-standard residues; d marks the D form. Peptide text beside a SMILES is read from it. I, II: the chains in the order shown. N(4-MeOBn)Gly = COc1ccc(CNCC(=O)O)cc1; N((CH2)3OiPr)Gly = CC(C)OCCCNCC(=O)O; Nrpe = C[C@@H](NCC(=O)O)c1ccccc1; NAllylGly = C=CCNCC(=O)O; Nleu = CC(C)CNCC(=O)O; Nme = COCCNCC(=O)O
Legend:
[1] = system: MCF-7 cells; test: WST-1 cell viability assay, MCF-7; format: cell-based, human; settings: WST-1, 48 h, concentrations tested up to 20 µM; n = 3–5/group
Excerpt: (§1) We assessed whether ACE2P1D1 and ACE2P2D1 are toxic to the cells. We seeded and treated increasing concentrations of ACE2P1D1 and ACE2P2D1 on NCI-H1299, Caco-2, and MCF-7 cells. The standard WST-1 assay was used to measure the cell viability. As shown in Figure 5c–e, treatment with both compounds had no effects on cell viability in NCI-H1299, MCF-7, and Caco-2 cells.

[2] = system: NCI-H1299 cells; test: WST-1 cell viability assay, NCI-H1299; format: cell-based, human; settings: WST-1, 48 h, concentrations tested up to 20 µM; n = 3–5/group
Excerpt: as §1

[3] = system: ACE2 activity in Caco-2 cells; test: ACE2 enzyme activity in Caco-2 cells; format: cell-based, human; settings: 40 µg cell lysate, cOmplete protease inhibitor 40 µL/mL, 10 µM captopril; fluorescence; n = 3/group
Protocol: ACE2 is an enzyme which lowers blood pressure by catalyzing the hydrolysis of angiotensin II [49]. […] To determine if ACE2P1D1 and ACE2P2D1 interfere with the normal functions of ACE2, we examined the effects of the peptoids on ACE2 enzyme activity. ACE2 enzyme activity was measured by fluorescence generated from the cleavage of the substrate Mca-YVADAPK(Dnp) by ACE2. […] We then examined the effects of ACE2P1D1 and ACE2P2D1 on ACE2 activity in cultured cells. For measuring ACE2 activity in cells, cell homogenates were used. To prevent hydrolysis of the substrate by a range of nonmetalloprotease enzymes from the cells, cOmplete™ Protease Inhibitor Cocktail (Roche/Sigma—40 µL/mL) was added to the cell homogenates. To eliminate the effects of ACE on the substrate, ACE inhibitor captopril (10 µM) was added to the assay.
ACE2 enzyme activity was determined using recombinant ACE2 protein (R&D system Inc., Cat# 933-ZN-010, Minneapolis, MN, USA) alone or in the presence of ACE2P1D1 and ACE2P2D1 in different concentrations (0.1 µM, 1 µM, and 10 µM), and Mc[…] (Dnp)-OH, Fluorogenic Peptide Substrate VI from R&D System, Inc. (Cat# ES007, Minneapolis, MN, USA). […] ACE2 enzyme activity was measured every 20 min by fluorescence plate reader (BioTek Cytation 5 cell Imaging Multi-Mode Reader, Winooski, VT, USA) with excitation at 320 nm and emission at 405 nm.

[4] = target: T1, recombinant human angiotensin-converting enzyme 2 (ACE2) (His-tag) (Homo sapiens, UniProt Q9BYF1); test: ELISA-like quantitative ACE2-peptoid binding assay
T1 construct: purchased RayBiotech 230-30165-100
Protocol: We first validated the OBTC screening results by resynthesizing ACE2P1 and ACE2P2 on tentagel beads and incubated them with red cells (ACE2 positive) and green cells (ACE2 negative) separately as well as 1:1 mixture of these cells. […] Next, we incubated recombinant ACE2 protein with the ACE2P1 or ACE2P2 conjugated tentagel beads and performed in vitro pull-down assay. […] To confirm a direct interaction between the peptoids and ACE2, we performed a thermal shift assay using recombinant ACE2 protein. The Applied Biosystems™ Protein Thermal Shift™ assay measures protein thermal stability using a fluorescent protein-binding dye. […] The protein is mixed with the dye and heated; as it unfolds or melts, hydrophobic parts of the protein are exposed and bind to the dye, resulting in fluorescence emission detected by the qPCR system. Binding of a ligand to the protein changes the stability of the protein, resulting in a change in fluorescence intensity. […] Finally, we performed a previously published ELISA-like quantitative binding assay to quantify the peptoid-ACE2 binding event. The recombinant His-tagged ACE2 protein was attached to the Nickel-coated 96-well plate. […] After washing, the remaining compounds were probed with streptavidin-HRP system followed by detecting luminescence signals using a spectrophotometer. […]

[5] = system: Caco-2 cells; test: WST-1 cell viability assay, Caco-2; format: cell-based, human; settings: WST-1, 48 h, concentrations tested up to 20 µM; n = 3–5/group
Excerpt: as §1

[6] = system: ACE2 cell surface expression in Caco-2 cells; test: Flow cytometry, ACE2 cell surface expression, Caco-2; format: cell-based, human; settings: 10 µM, 48 h
Protocol: To evaluate the impact of compounds to ACE2 upon binding in cell lines, MCF-7, NCI-H1299, and Caco-2 cell cultures reaching 70% confluences were incubated with 10 μM ACE2P1D1 and ACE2P2D1 for 48 h and then harvested using trypsin. Briefly, cells were centrifuged and washed with FACS buffer and then fixed by methanol on ice. Cells were suspended with a primary antibody-staining mixture using 0.5 μg (Human/Mouse/Rat/Hamster ACE-2 Antibody, R&D Systems, Inc., Cat# AF933, Minneapolis, MN, USA) per sample. Samples were incubated at room temperature for 1 h followed by washing and secondary antibody (mouse anti-goat IgG-FITC, Santa Cruz, Cat# sc-2356, Dallas, TX, USA) staining. Samples were incubated for another hour and washed before being analyzed using Accuri™ C6 (BD Biosciences, Franklin Lakes, NJ, USA). Data analysis was conducted by FlowJo™ v10 software (v10.5.2, FlowJo. LLC, Ashland, OR, USA).

[7] = system: total ACE2 protein in Caco-2 cells; test: Western blot, total ACE2, Caco-2; format: cell-based, human; settings: various concentrations, 48 h
Protocol: Cells were lysed in RIPA buffer (1% NP-40, 0.5% sodium deoxycholate, 0.1% SDS in PBS). Complete protease inhibitor cocktail (Roche, St. Louis, MO, USA) was added to lysis buffer before use. Protein concentration was determined by Bio-Rad DC protein assay (Bio-Rad, Hercules, CA, USA). Protein samples were subjected to SDS-PAGE and transferred to nitrocellulose membrane. The membrane was blocked in 5% non-fat milk in PBST overnight and incubated with primary antibody and subsequently with appropriate horse radish peroxidase-conjugated secondary antibody. Signals of targeted proteins were detected by the Immun-Star HRP peroxide Luminol/Enhancer (Bio-Rad, Hercules, CA, USA) and recorded on ChemiDoc Touch Imaging System (Bio-Rad, Hercules, CA, USA). Anti-hACE2 (human ACE2 receptor) antibody was purchased from R&D system, Inc. (Cat# AF933, Minneapolis, MN, USA). Full western blot data are given in Supplementary Material (Figures S14–S16).

T1 sequence (Q9BYF1 18-805): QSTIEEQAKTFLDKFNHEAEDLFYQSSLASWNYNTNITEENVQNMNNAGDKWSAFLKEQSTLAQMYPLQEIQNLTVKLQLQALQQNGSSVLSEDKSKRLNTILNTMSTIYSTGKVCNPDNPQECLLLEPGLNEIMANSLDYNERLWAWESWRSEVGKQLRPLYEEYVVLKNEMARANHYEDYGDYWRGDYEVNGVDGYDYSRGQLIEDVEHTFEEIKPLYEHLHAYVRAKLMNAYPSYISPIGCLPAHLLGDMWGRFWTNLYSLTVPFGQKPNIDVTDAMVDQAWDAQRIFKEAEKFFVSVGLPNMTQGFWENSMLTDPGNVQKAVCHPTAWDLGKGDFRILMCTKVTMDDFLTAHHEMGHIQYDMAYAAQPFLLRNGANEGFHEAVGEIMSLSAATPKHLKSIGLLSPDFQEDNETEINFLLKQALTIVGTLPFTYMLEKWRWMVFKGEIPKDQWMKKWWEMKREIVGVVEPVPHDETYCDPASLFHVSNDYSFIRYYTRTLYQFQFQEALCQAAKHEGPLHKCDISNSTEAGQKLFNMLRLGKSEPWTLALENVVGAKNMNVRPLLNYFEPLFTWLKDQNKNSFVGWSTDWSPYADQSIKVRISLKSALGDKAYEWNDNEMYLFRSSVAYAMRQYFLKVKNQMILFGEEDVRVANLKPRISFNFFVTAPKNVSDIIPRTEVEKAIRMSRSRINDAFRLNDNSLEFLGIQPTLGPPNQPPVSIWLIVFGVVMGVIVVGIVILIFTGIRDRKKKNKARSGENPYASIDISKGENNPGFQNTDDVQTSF

C=CCN(CC(=O)N(CC(=O)N[C@@H](CCCCN)C(=O)N[C@@H](CCSC)C(=O)NCCCC[C@H](NC(=O)[C@H](CCSC)NC(=O)[C@H](CCCCN)NC(=O)CN(C(=O)CN(CC=C)C(=O)CN(Cc1ccc(OC)cc1)C(=O)CN(C(=O)CN(CCOC)C(=O)CNCC(C)C)[C@H](C)c1ccccc1)[C@H](C)c1ccccc1)C(N)=O)[C@H](C)c1ccccc1)C(=O)CN(Cc1ccc(OC)cc1)C(=O)CN(C(=O)CN(CCOC)C(=O)CNCC(C)C)[C@H](C)c1ccccc1 [ACE2P1D1] (I: H-[Nleu][Nme][Nrpe][N(4-MeOBn)Gly][NAllylGly][Nrpe]KMK-NH2 / II: H-[Nleu][Nme][Nrpe][N(4-MeOBn)Gly][NAllylGly][Nrpe]KM; amide I:9-II:C)
effect on cell viability, MCF-7 [1]: had no effect on the cell viability
effect on cell viability, NCI-H1299 [2]: had no effect on the cell viability
effect on ACE2 activity in cultured Caco-2 cells [3]: had no effects on ACE2 activity
Kd [4]: 60 nM
effect on cell viability, Caco-2 [5]: had no effect on the cell viability
cell surface expression of ACE2, Caco-2 [6]: did not decrease the cell surface expression of ACE2
total ACE2 protein level, Caco-2 [7]: total ACE2 protein levels did not change

COCCN(CC(=O)N[C@@H](CCCCN)C(=O)N[C@@H](CCSC)C(=O)NCCCC[C@H](NC(=O)[C@H](CCSC)NC(=O)[C@H](CCCCN)NC(=O)CN(CCOC)C(=O)CN(CC(C)C)C(=O)CN(CC(C)C)C(=O)CN(CCCOC(C)C)C(=O)CN(Cc1ccc(OC)cc1)C(=O)CNCc1ccc(OC)cc1)C(N)=O)C(=O)CN(CC(C)C)C(=O)CN(CC(C)C)C(=O)CN(CCCOC(C)C)C(=O)CN(Cc1ccc(OC)cc1)C(=O)CNCc1ccc(OC)cc1 [ACE2P2D1] (I: H-[N(4-MeOBn)Gly][N(4-MeOBn)Gly][N((CH2)3OiPr)Gly][Nleu][Nleu][Nme]KMK-NH2 / II: H-[N(4-MeOBn)Gly][N(4-MeOBn)Gly][N((CH2)3OiPr)Gly][Nleu][Nleu][Nme]KM; amide I:9-II:C)
effect on cell viability, MCF-7 [1]: had no effect on the cell viability
effect on cell viability, NCI-H1299 [2]: had no effect on the cell viability
effect on ACE2 activity in cultured Caco-2 cells [3]: had no effects on ACE2 activity
Kd [4]: 110 nM
effect on cell viability, Caco-2 [5]: had no effect on the cell viability
cell surface expression of ACE2, Caco-2 [6]: did not decrease the cell surface expression of ACE2
total ACE2 protein level, Caco-2 [7]: total ACE2 protein levels did not change

— paper PMC8396575, ““Molecular Masks” for ACE2 to Effectively and Safely Block SARS-CoV-2 Virus Entry” (International Journal of Molecular Sciences, 2021)
